Assay results reported in ChEMBL document CHEMBL1130376, “Effects of taxoids from Taxus cuspidata on microtubule depolymerization and vincristine accumulation in MDR cells” (Bioorg Med Chem Lett, 1997).
Values after ≈ are worked out from the molar mass of the structure shown.

How the values were obtained:
L1210 = experiment: Cytotoxicity against murine leukemia L1210 cells; type: functional, cell-based, Mus musculus
[1] = Vincristine (VCR) accumulation in multidrug resistant human ovarian cancer 2780 AD cells at a concentration 1 ug/mL; type: functional
[2] = Cytotoxicity against human epidermoid carcinoma KB cells; type: functional, cell-based
[3] = Vincristine (VCR) accumulation in multidrug resistant human ovarian cancer 2780 AD cells at a concentration 10 ug/mL; type: functional
[4] = Mus musculus, L1210, read-out: IC50

CC(=O)O[C@H]1[C@@H]2[C@H](CO)[C@@H](OC(C)=O)C[C@H](OC(C)=O)[C@@]2(C)[C@@H](OC(C)=O)[C@H](OC(C)=O)C2=C(C)[C@@H](OC(C)=O)C[C@@H]1C2(C)C
IC50 (L1210; [4]): 10 µg/mL (≈ 15.7 µM) | vincristine accumulation (% of control) [1]: 177% | IC50 [2]: 4.5 µg/mL (≈ 7.05 µM) | vincristine accumulation (% of control) [3]: 264%

C=C1[C@@H](O)C[C@H](O)[C@@]2(C)[C@@H](OC(C)=O)[C@H](OC(C)=O)C3=C(C)C(=O)C[C@@]3(C(C)(C)O)[C@@H](OC(C)=O)[C@H]12
IC50 (L1210; [4]): > 10 µg/mL | vincristine accumulation (% of control) [1]: 151% | IC50 [2]: > 10 µg/mL | vincristine accumulation (% of control) [3]: 191%

C=C1[C@@H](OC(=O)/C=C/c2ccccc2)CC[C@@]2(C)[C@@H](OC(C)=O)[C@H](OC(C)=O)[C@@]34[C@H](C)C(=O)C[C@@H]([C@@H](OC(C)=O)C132)C4(C)C (stereo partly specified)
IC50 (L1210; [4]): 5.8 µg/mL (≈ 9.56 µM) | vincristine accumulation (% of control) [1]: 246% | IC50 [2]: > 10 µg/mL | vincristine accumulation (% of control) [3]: 768%

C=C1[C@@H](OC(=O)CC(c2ccccc2)N(C)C)CC[C@@]2(C)[C@@H](OC(C)=O)[C@H](OC(C)=O)[C@@]34[C@H](C)C(=O)C[C@@H]([C@@H](OC(C)=O)C132)C4(C)C (stereo partly specified)
IC50 (L1210; [4]): > 10 µg/mL | vincristine accumulation (% of control) [1]: 174% | IC50 [2]: 1.6 µg/mL (≈ 2.45 µM) | vincristine accumulation (% of control) [3]: 567%

C=C1[C@@H](OC(=O)/C=C/c2ccccc2)CC[C@@]2(C)[C@@H](O)[C@H](OC(C)=O)C3=C(C)C(=O)C[C@@H]([C@@H](OC(C)=O)[C@H]12)C3(C)C
IC50 (L1210; [4]): 1.1 µg/mL (≈ 1.95 µM) | vincristine accumulation (% of control) [1]: 173% | IC50 [2]: 0.17 µg/mL (≈ 0.301 µM) | vincristine accumulation (% of control) [3]: 372%

CC(=O)O[C@H]1C(=O)[C@@]2(C)[C@H]([C@H](OC(=O)c3ccccc3)[C@]3(O)C[C@H](OC(=O)[C@H](O)C(NC(=O)C4CCC4)c4ccccc4)C(C)=C1C3(C)C)[C@]1(OC(C)=O)CO[C@@H]1C[C@@H]2O (stereo partly specified)
IC50 (L1210; [4]): 0.25 µg/mL (≈ 0.301 µM) | vincristine accumulation (% of control) [1]: 88% | IC50 [2]: 0.086 µg/mL (≈ 0.103 µM) | vincristine accumulation (% of control) [3]: 93%

CC(=O)O[C@@]12CO[C@H]1C[C@H](O)[C@@]1(C)C(=O)[C@H](O)C3=C(C)[C@@H](O)C[C@@](O)([C@@H](OC(=O)c4ccccc4)[C@H]21)C3(C)C
IC50 (L1210; [4]): > 10 µg/mL | vincristine accumulation (% of control) [1]: 153% | IC50 [2]: > 10 µg/mL | vincristine accumulation (% of control) [3]: 271%

CC(=O)O[C@H]1C[C@@H]2OC[C@@]2(OC(C)=O)[C@H]2[C@H](OC(=O)c3ccccc3)[C@]3(O)C[C@H](O)C(C)=C([C@@H](O)[C@H](O)[C@]12C)C3(C)C
IC50 (L1210; [4]): 0.27 µg/mL (≈ 0.459 µM) | IC50 [2]: 0.08 µg/mL (≈ 0.136 µM)

C=C1[C@@H](OC(=O)/C=C/c2ccccc2)C[C@H](OC(C)=O)[C@@]2(C)[C@@H](OC(C)=O)[C@H](OC(C)=O)[C@]3(O)[C@@]4(C)CO[C@]3(C)C(=O)C[C@H]4[C@@H](OC(C)=O)[C@H]12 [TAXAGIFINE]
IC50 (L1210; [4]): 1.3 µg/mL (≈ 1.87 µM) | vincristine accumulation (% of control) [1]: 194% | IC50 [2]: 0.86 µg/mL (≈ 1.23 µM) | vincristine accumulation (% of control) [3]: 242%

COc1ccc(CCN(C)CCCC(C#N)(c2ccc(OC)c(OC)c2)C(C)C)cc1OC (stereo unspecified) [VERAPAMIL]
vincristine accumulation (% of control) [1]: 254% | vincristine accumulation (% of control) [3]: 739%

C=C1[C@@H](O)C[C@H](OC(C)=O)[C@@]2(C)[C@@H](OC(C)=O)[C@H](OC(=O)c3ccccc3)C3=C(C)[C@@H](O)C[C@@]3(C(C)(C)O)[C@@H](OC(C)=O)[C@H]12 [TAXCHININ A]
IC50 (L1210; [4]): > 10 µg/mL | vincristine accumulation (% of control) [1]: 143% | IC50 [2]: 0.4 µg/mL (≈ 0.651 µM) | vincristine accumulation (% of control) [3]: 192%

C=C1[C@@H](OC(=O)/C=C/c2ccccc2)C[C@H](OC(C)=O)[C@@]2(C)[C@@H](OC(C)=O)[C@H](OC(C)=O)C3=C(C)C(=O)C[C@@H]([C@@H](OC(C)=O)[C@H]12)C3(C)C
IC50 (L1210; [4]): > 10 µg/mL | vincristine accumulation (% of control) [1]: 116% | IC50 [2]: > 10 µg/mL | vincristine accumulation (% of control) [3]: 438%

C=C1[C@@H](OC(=O)CC(c2ccccc2)N(C)C)CC[C@]2(C)[C@@H]1C[C@@H]1C[C@H](OC(C)=O)C(C)=C([C@@H](OC(C)=O)[C@@H]2OC(C)=O)C1(C)C (stereo partly specified)
IC50 (L1210; [4]): > 10 µg/mL | vincristine accumulation (% of control) [1]: 250% | IC50 [2]: > 10 µg/mL | vincristine accumulation (% of control) [3]: 882%

CCCCCC(=O)NC(c1ccccc1)[C@@H](O)C(=O)O[C@H]1C[C@@]2(O)[C@@H](OC(=O)c3ccccc3)[C@@H]3[C@]4(OC(C)=O)CO[C@@H]4C[C@H](O)[C@@]3(C)C(=O)[C@H](O)C(=C1C)C2(C)C (stereo partly specified)
IC50 (L1210; [4]): 0.24 µg/mL (≈ 0.298 µM) | IC50 [2]: 0.0017 µg/mL (≈ 0.00211 µM)

CC(=O)O[C@H]1C[C@@H]2OC[C@@]2(OC(C)=O)[C@H]2[C@H](OC(C)=O)[C@]3(O)C[C@H](OC(=O)CC(c4ccccc4)N(C)C)C(C)=C([C@@H](OC(=O)c4ccccc4)[C@H](OC(C)=O)[C@]12C)C3(C)C (stereo partly specified)
IC50 (L1210; [4]): 7.8 µg/mL (≈ 9.2 µM) | IC50 [2]: > 10 µg/mL

C=C1[C@@H](OC(C)=O)CC[C@@]2(C)[C@@H](OC(C)=O)[C@H](OC(C)=O)C3=C(C)[C@@H](OC(C)=O)C[C@@H]([C@@H](OC(C)=O)[C@H]12)C3(C)C
IC50 (L1210; [4]): > 10 µg/mL | IC50 [2]: > 10 µg/mL

C=C1[C@@H](OC(=O)/C=C/c2ccccc2)C[C@H](OC(C)=O)[C@@]2(C)[C@@H](OC(C)=O)[C@H](OC(C)=O)[C@@]3(O)C(C)=C(OC(C)=O)C[C@@H]([C@@H](OC(C)=O)[C@H]12)C3(C)C
IC50 (L1210; [4]): 3 µg/mL (≈ 4.14 µM) | vincristine accumulation (% of control) [1]: 133% | IC50 [2]: 1.8 µg/mL (≈ 2.48 µM) | vincristine accumulation (% of control) [3]: 325%

CC(=O)O[C@@]12CO[C@@H]1C[C@H](O)[C@@]1(C)C(=O)[C@H](O)C3=C(C)[C@@H](OC(=O)[C@H](O)C(NC(=O)C4CCC4)c4ccccc4)C[C@@](O)([C@@H](OC(=O)c4ccccc4)[C@H]21)C3(C)C (stereo partly specified)
IC50 (L1210; [4]): 0.95 µg/mL (≈ 1.2 µM) | IC50 [2]: 0.0048 µg/mL (≈ 0.00608 µM)

CCCC(=O)NC(c1ccccc1)[C@@H](O)C(=O)O[C@H]1C[C@@]2(O)[C@@H](OC(=O)c3ccccc3)[C@@H]3[C@]4(OC(C)=O)CO[C@@H]4C[C@H](O)[C@@]3(C)C(=O)[C@H](OC(C)=O)C(=C1C)C2(C)C (stereo partly specified)
IC50 (L1210; [4]): 0.21 µg/mL (≈ 0.256 µM) | IC50 [2]: 0.016 µg/mL (≈ 0.0195 µM)

CCCCCC(=O)NC(c1ccccc1)[C@@H](O)C(=O)O[C@H]1C[C@@]2(O)[C@@H](OC(=O)c3ccccc3)[C@@H]3[C@]4(OC(C)=O)CO[C@@H]4C[C@H](O)[C@@]3(C)C(=O)[C@H](OC(C)=O)C(=C1C)C2(C)C (stereo partly specified)
IC50 (L1210; [4]): 0.21 µg/mL (≈ 0.248 µM) | IC50 [2]: 0.0053 µg/mL (≈ 0.00625 µM)

CC(=O)O[C@H]1C(=O)[C@@]2(C)[C@H]([C@H](OC(=O)c3ccccc3)[C@]3(O)C[C@H](OC(=O)[C@H](O)[C@@H](NC(=O)c4ccccc4)c4ccccc4)C(C)=C1C3(C)C)[C@]1(OC(C)=O)CO[C@@H]1C[C@@H]2O [PACLITAXEL]
vincristine accumulation (% of control) [1]: 83% | vincristine accumulation (% of control) [3]: 56%

CC(=O)O[C@@]12CO[C@@H]1C[C@H](O)[C@@]1(C)C(=O)[C@H](O)C3=C(C)[C@@H](OC(=O)[C@H](O)C(NC(=O)c4ccccc4)c4ccccc4)C[C@@](O)([C@@H](OC(=O)c4ccccc4)[C@H]21)C3(C)C (stereo partly specified)
IC50 (L1210; [4]): 0.88 µg/mL (≈ 1.08 µM) | IC50 [2]: 0.015 µg/mL (≈ 0.0185 µM)

CC(=O)O[C@H]1C(=O)[C@@]2(C)[C@H]([C@H](OC(=O)c3ccccc3)[C@]3(O)C[C@H](OC(=O)[C@H](O)[C@@H](NC(=O)c4ccccc4)c4ccccc4)C(C)=C1C3(C)C)[C@]1(OC(C)=O)CO[C@@H]1C[C@@H]2O (mixture of isomers) [PACLITAXEL]
IC50 (L1210; l1210): 0.026 µg/mL | vincristine accumulation (% of control) [1]: 132% | vincristine accumulation (% of control) [3]: 138%
